Data reported in patent US10495796B2, “Near-infrared cut filter” (AGC INC., priority 2012, dated 2019).
One block for each molecule: values may come before it.

Tests used:
[1] = Solubility of dye to organic solvent; type: physicochemical; settings: 50° C., mass % of the dye to the mass of the entire solution; for Solubility to organic solvent: MIBK: methyl isobutyl ketone
Description: Regarding the dyes (A11-1) to (A11-10) and (A11-20) to (A11-27) obtained above, solubility to organic solvent was evaluated as follows.
Three kinds of solvents, cyclohexanone, methyl isobutyl ketone (MIBK), toluene, were used as the organic solvent in the solubility test. Note that in Table 3, % is mass % of the dye to the mass of the entire solution. Further, the temperature of each organic solvent in the solubility test was 50° C.

[2] = Absorption characteristics: transmission spectrum of near-infrared absorbing layer of NIR filter (UV-visible spectrophotometer); type: physicochemical
Description: Further, the transmittance of the near-infrared absorbing layer can be measured by using an ultraviolet visible light spectrophotometer. For example, when the near-infrared absorbing layer is provided on a glass substrate, the transmittance is calculated by subtracting the transmittance of only the glass substrate. Note that the transmittance of light of the near-infrared absorbing layer refers to, unless otherwise stated, a ratio to light incident from a direction orthogonal to a main surface of a sample, the ratio of this light traveling straight inside the sample and transmitted to an opposite side. Further, when the transmittance is measured by making light incident from a direction other than the direction orthogonal to the main surface of the sample in the measurement of transmittance of light, an angle made by a straight line indicating the direction of the incident light to a line orthogonal to the main surface is called an incident angle.
In the condition (ii-3), the value calculated by nd(B)×(λa−λc) (hereinafter, this value may also be described as “Is value”) is a value to be an index indicating steepness of the absorption curve in the vicinity of the boundary between the visible light region and the near-infrared region with respect to a transmission spectrum of the near-infrared absorbing layer. When this value is 115 or less, the absorption curve in the vicinity of the boundary between the visible light region and the near-infrared region is steep with respect to the near-infrared absorbing layer, which can be said as preferable for the NIR filter.
That is, with respect to the transmission spectrum of the near-infrared absorbing layer, the smaller the difference (λa−λc) between the shortest wavelength λa with transmittance of 1% in the region of 650 nm to 800 nm and the wavelength λc with transmittance of 70% on a shorter wavelength side than the λa, the steeper the absorption curve in the vicinity of the boundary between the visible light region and the near-infrared region. Here, λa−λc also depends on a wavelength width having transmittance of 1% or less (λb−λa; λb is the longest wavelength with transmittance of 1% in the wavelength region of 650 nm to 800 nm). Accordingly, in order to compare and evaluate the steepness of the absorption curve in the above region of the transmission spectrum of the near-infrared absorbing layer, λb−λa is fixed to 30 nm. That is, λb−λa of the near-infrared absorbing layer which the present filter has is not limited to 30 nm.
Further, in the Is value, (λa−λc) is multiplied by the refractive index nd(B) of the transparent resin (B) contained in the near-infrared absorbing layer as a coefficient. This is to standardize the difference in steepness among resins.
Regarding transmittance (%/nm) of the NIR filters 1 to 109 obtained above, transmission spectra were measured and calculated by using an ultraviolet visible light spectrophotometer (U-4100 type spectrophotometer made by Hitachi High-Technologies Corporation). Analysis results of transmission spectra of the near-infrared absorbing layers which the NIR filters have are presented in Table 4, Table 5 and Table 6 for the NIR filters 1 to 25, 26 to 51, 52 to 75, respectively, and are presented in Table 7 and Table 8 for the NIR filters 76 to 94, 95 to 109, respectively. In Table 4 to Table 8, the ratios (parts by mass) of dyes to 100 parts by mass of the transparent resin (B) and film thicknesses of the near-infrared absorbing layers are described together.
Further, conditions of preferred transmission spectra of the near-infrared absorbing layers in the present filter and Is values obtained by the formula: nd(B)×(λa-λc) described in above (ii-3) are described in Table 4 to Table 8 together with λa in the condition (ii-1) and λb-λa in the condition (ii-2). Note that values described in Table 4 to Table 8 are values obtained by subtracting transmittance of a glass plate from transmittance of an NIR filter. […]

[3] = transparent resin acrylic resin BR50, nd(B) 1.56, film thickness 2.3 μm
[4] = transparent resin polycarbonate EP5000, nd(B) 1.63, film thickness 2.4 μm
[5] = transparent resin polycarbonate SP1516, nd(B) 1.60, film thickness 0.9 μm
[6] = transparent resin polycarbonate SP3810, nd(B) 1.63, film thickness 1.0 μm
[7] = transparent resin polycarbonate SP3810, nd(B) 1.63, film thickness 2.8 μm

Solubility to organic solvent: Cyclohexanone [1]: <1.0% mass %
Solubility to organic solvent: MIBK [1]: <1.0% mass %
Solubility to organic solvent: Toluene [1]: <1.0% mass %
430 nm to 600 nm Average transmittance [2, 3]: 93.1%
Is value (nd(B)×(λa-λc)) [2, 3]: 142.1
λa [2, 3]: 687 nm
λa − λc [2, 3]: 91 nm
λb [2, 3]: 717 nm
λb − λa [2, 3]: 30 nm
λc [2, 3]: 596 nm
λmax [2, 3]: 704 nm
430 nm to 600 nm Average transmittance [2, 4]: 95.6%
Is value (nd(B)×(λa-λc)) [2, 4]: 122.4
λa [2, 4]: 693 nm
λa − λc [2, 4]: 68 nm
λb [2, 4]: 723 nm
λb − λa [2, 4]: 30 nm
λc [2, 4]: 618 nm
λmax [2, 4]: 710 nm
430 nm to 600 nm Average transmittance [2, 5]: 94.5%
Is value (nd(B)×(λa-λc)) [2, 5]: 126.4
λa [2, 5]: 690 nm
λa − λc [2, 5]: 79 nm
λb [2, 5]: 720 nm
λb − λa [2, 5]: 30 nm
λc [2, 5]: 611 nm
λmax [2, 5]: 706 nm
430 nm to 600 nm Average transmittance [2, 6]: 93.6%
Is value (nd(B)×(λa-λc)) [2, 6]: 129.1
λa [2, 6]: 693 nm
λa − λc [2, 6]: 79 nm
λb [2, 6]: 723 nm
λb − λa [2, 6]: 30 nm
λc [2, 6]: 614 nm
λmax [2, 6]: 710 nm
430 nm to 600 nm Average transmittance [2, 7]: 95.0%
Is value (nd(B)×(λa-λc)) [2, 7]: 124.2
λa [2, 7]: 694 nm
λa − λc [2, 7]: 76 nm
λb [2, 7]: 724 nm
λb − λa [2, 7]: 30 nm
λc [2, 7]: 618 nm
λmax [2, 7]: 710 nm
Structure (SMILES): CC(=O)Nc1cc2c(cc1C1=C([O-])C(=c3cc4c(cc3NC(C)=O)=[N+](C)C(C)C4(C)C)C1=O)C(C)(C)C(C)N2C (stereo not shown) [Example A11-20, reference compound]

Solubility to organic solvent: Cyclohexanone [1]: <1.0% mass %
Solubility to organic solvent: MIBK [1]: <1.0% mass %
Solubility to organic solvent: Toluene [1]: <1.0% mass %
Structure (SMILES): CCCC(=O)Nc1cc2c(cc1C1=C([O-])C(=c3cc4c(cc3NC(=O)CCC)=[N+](C)C(C)C4(C)C)C1=O)C(C)(C)C(C)N2C (stereo not shown) [Example A11-21, reference compound]

Solubility to organic solvent: Cyclohexanone [1]: 2.50% mass %
Solubility to organic solvent: MIBK [1]: <1.0% mass %
Solubility to organic solvent: Toluene [1]: 2.50% mass %
Structure (SMILES): CCCCCCC(=O)Nc1cc2c(cc1C1=C([O-])C(=c3cc4c(cc3NC(=O)CCCCCC)=[N+](C)C(C)C4(C)C)C1=O)C(C)(C)C(C)N2C (stereo not shown) [Example A11-23, reference compound]

Solubility to organic solvent: Cyclohexanone [1]: <1.0% mass %
Solubility to organic solvent: MIBK [1]: <1.0% mass %
Solubility to organic solvent: Toluene [1]: <1.0% mass %
Structure (SMILES): CC(C)C(=O)Nc1cc2c(cc1C1=C([O-])C(=c3cc4c(cc3NC(=O)C(C)C)=[N+](C)C(C)C4(C)C)C1=O)C(C)(C)C(C)N2C (stereo not shown) [Example A11-26, reference compound]
